Structure (SMILES) | solubility (mole fraction) (in PEGDME 250, 293.15 K) | solubility (mole fraction) (in PEGDME 250, 298.15 K) | solubility (mole fraction) (in PEGDME 250, 303.15 K) | solubility (mole fraction) (in PEGDME 250, 308.15 K) | solubility (mole fraction) (in PEGDME 250, 313.15 K) | solubility (mole fraction) (in water, 293.15 K) | solubility (mole fraction) (in water, 298.15 K) | solubility (mole fraction) (in water, 303.15 K) | solubility (mole fraction) (in water, 308.15 K) | solubility (mole fraction) (in water, 313.15 K)
O=C(O)c1ccccc1O | 0.347 | 0.382 | 0.415 | 0.45 | 0.486 | 0.000205 | 0.000251 | 0.000306 | 0.000372 | 0.00046
CC(=O)Nc1ccc(O)cc1 | 0.15 | 0.174 | 0.196 | 0.216 | 0.236 | 0.00151 | 0.00201 | 0.0022 | 0.00288 | 0.00334

Source: BigSolDB 2.1
